These results are taken from article PMC9604483, “Crystal Structure of CYP3A4 Complexed with Fluorol Identifies the Substrate Access Channel as a High-Affinity Ligand Binding Site” (International Journal of Molecular Sciences, 2022).

Where two headings read alike, the source gives them in different places.

Holding throughout (assay type): binding
Data set [1] addresses T1, T224A CYP3A4 (Homo sapiens, UniProt P08684, T224A).
T1 construct: made in house
Description: Equilibrium fluorescence titrations of fluorol with CYP3A4. The settings on record: for Kd: read-out: Kd, fluorometric. From the text:
(§1) Equilibrium fluorescence titrations were used as an alternative approach for Kd determination. One advantage of fluorol is a large Stokes shift (difference between the absorption and emission maxima; Figure S1B) and sensitivity to environment, as emission becomes more intense and blue-shifted when polarity of the medium decreases (Figure S1C). Moreover, spectral overlap between the emission band of fluorol and Q-bands of CYP3A4 enables fluorescence resonance energy transfer (FRET) to the heme. This process dominates during complex formation with CYP3A4, because emission is decreased rather than enhanced when fluorol transfers from an aqueous media to a more hydrophobic protein environment. One complication that we encountered during fluorescence measurements was a nonspecific decrease in emission, presumably due to adhesion of fluorol to plastic pipette tips. To overcome this problem, before each titration, small amounts of buffer were added to fluorol solution in 1–2 μL increments (8–10 additions; <2% of volume change) and mixed using the same low-retention pipette tip. When no further changes in fluorescence intensity were observed, the same tip was used for addition and mixing of CYP3A4 aliquots (Figure 4A). […] This means that the low-affinity site in T224A CYP3A4 is less solvated and/or lies closer to the heme.
(§2) As a result, in GS8-bound CYP3A4, fluorol might still be able to bind to the channel, albeit in a different orientation (Figure S2C). […] Thus, regardless of what ligand is bound, only the low-affinity site was available for fluorol in both WT and T224A CYP3A4.
(§3) Fluorescence measurements—Equilibrium fluorescence titrations were conducted on a Hitachi F-7000 fluorescence spectrophotometer at 23 °C in 50 mM phosphate buffer, pH 7.4, containing 0.6 mg/mL β-cyclodextrin. Fluorol solution (1 μM) was first titrated with small amounts of buffer using a low-retention plastic pipette tip until no further changes in fluorescence were detected (λex = 440 nm); then, the same tip was used for CYP3A4 additions (6 μM final concentration). […] CYP3A4-dependent changes in fluorescence intensity were plotted vs. CYP3A4 concentration, and Kd values were derived from nonlinear regression fittings.

Data set [2] addresses T2, WT CYP3A4 (Homo sapiens, UniProt P08684).
T2 construct: made in house
The data set is described as above.
Source text: as §1, §2, §3

Data set [3] concerns the target T1, T224A CYP3A4. Briefly: Stopped-flow kinetics of CYP3A4-fluorol complex formation (fluorol emission decay). How it is done: (§4) During equilibrium titrations, fluorescence spectra were usually recorded 10–15 min after addition of CYP3A4, which could allow fluorol to adjust/change its initial binding position. To better understand the substrate/inhibitor effects, the kinetics of CYP3A4–fluorol complex formation were measured by monitoring decay of fluorol emission in a stopped-flow spectrophotometer. […] Fluorol binding to WT and T224A CYP3A4 was biphasic within the studied time interval (2 s). The rate constants for the fast and slow phases (kfast and kslow, respectively) determined for ligand-free and progesterone-bound CYP3A4 were virtually independent on fluorol concentration (Figure 5A–D). […] Likewise, kslow was elevated for ritonavir- and GS8-bound WT CYP3A4 but remained unchanged for the T224A mutant.
(§5) Kinetics of CYP3A4–fluorol complex formation were measured in a SX.18MV stopped-flow apparatus (Applied Photophysics, Leatherhead, UK) at 23 °C in 50 mM phosphate buffer, pH 7.4, containing 0.6 mg/mL β-cyclodextrin. WT or T224A CYP3A4 (2 μM) was mixed with 0.25–4 μM fluorol solution prepared from 1–3 mM stocks in DMSO. Equal amounts of DMSO were added to the protein solutions to avoid buffer-related changes in fluorol emission. Fluorescence changes were monitored with λex of 455 nm and a 495 nm cutoff emission filter. […] Kinetics were analyzed using the Igor Pro software (WaveMetrics, Oswego, OR, USA).

The target in data set [4] is T2, WT CYP3A4. Described as above. How it is done: as §4, §5

T2 sequence (P08684 with tags, fused parts or gaps): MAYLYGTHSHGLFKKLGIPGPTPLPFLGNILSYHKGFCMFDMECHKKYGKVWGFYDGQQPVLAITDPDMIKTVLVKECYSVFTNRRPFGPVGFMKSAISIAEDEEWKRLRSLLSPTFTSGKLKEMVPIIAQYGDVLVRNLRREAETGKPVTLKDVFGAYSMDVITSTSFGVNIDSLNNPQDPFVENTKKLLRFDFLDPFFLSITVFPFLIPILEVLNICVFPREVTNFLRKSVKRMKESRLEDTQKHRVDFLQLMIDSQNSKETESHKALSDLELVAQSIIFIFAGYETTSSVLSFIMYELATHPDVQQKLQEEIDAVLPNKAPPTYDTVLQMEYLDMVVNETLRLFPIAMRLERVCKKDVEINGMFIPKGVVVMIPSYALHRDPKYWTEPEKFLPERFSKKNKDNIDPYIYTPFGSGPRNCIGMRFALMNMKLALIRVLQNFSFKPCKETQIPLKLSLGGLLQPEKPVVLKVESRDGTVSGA
T1 sequence (P08684 with tags, fused parts or gaps T224A): as the sequence (P08684 with tags, fused parts or gaps) above, with T204A counted along it

Consider `CCCCNc1ccc2c3c(cccc13)C(=O)N(CCCC)C2=O` [fluorol, 2-butyl-6-(butylamino)-1H-benzo[de]isoquinoline-1,3(2H)-dione], for which the “Ligand-dependent decrease in emission change” value is 7% at T224A CYP3A4 [1] (GS8-bound T224A CYP3A4) and 20% at T224A CYP3A4 [1] (ritonavir-bound T224A CYP3A4). Also, the Kd at T224A CYP3A4 [1] (T224A CYP3A4 in presence of 0.4 μM GS8, one-site model) amounted to 1600 ± 200 nM; on T224A CYP3A4 [1] (T224A CYP3A4 in presence of 0.4 μM RIT, one-site model), 3500 ± 300 nM; on T224A CYP3A4 [1] (T224A CYP3A4 in presence of 20 μM PRG, one-site model) it was 1800 ± 200 nM; at T224A CYP3A4 [1] (ligand-free T224A CYP3A4, only a low-affinity site detected), 2000 ± 300 nM; at WT CYP3A4 [2] (WT CYP3A4 in presence of 0.4 μM GS8, one-site model, read-out: Kd, fluorometric), 2100 ± 300 nM; at WT CYP3A4 [2] (WT CYP3A4 in presence of 0.4 μM RIT, one-site model, read-out: Kd, fluorometric), 4800 ± 600 nM. The Kd at WT CYP3A4 [2] (WT CYP3A4 in presence of 20 μM PRG, one-site model, read-out: Kd, fluorometric) is 2400 ± 200 nM; at WT CYP3A4 [2] (ligand-free WT CYP3A4, 1 μM fluorol, 23 °C, pH 7.4, read-out: Kd, fluorometric, high-affinity site) it was 150 ± 30 nM. The “Ligand-dependent increase in emission change” value on T224A CYP3A4 [1] (T224A CYP3A4 in the presence of progesterone) was 20%. Besides, the “Fluorescence decay in T224A relative to WT” value on T224A CYP3A4 [1] (larger in T224A, equilibrium titration) is ~ 20%. In addition, the results for the “Reduction of emission quenching” value on WT CYP3A4 [2] (GS8-bound WT CYP3A4 vs ligand-free) and at WT CYP3A4 [2] (ritonavir-bound WT CYP3A4 vs ligand-free) were 10% and 30%, respectively. For the same compound, the dissociation constant (Kd) at 1 μM at WT CYP3A4 [2] (human, ligand-free WT CYP3A4 protein in buffer, pH 7.4, ligand-free WT CYP3A4, read-out: Kd, fluorometric, low-affinity site) is 2400 ± 400 nM. For the same compound, on WT CYP3A4 [2] (ligand-free WT CYP3A4), the “Percentage of the fluorescence change due to binding of fluorol to the high-affinity site” value turned out to be 25%. The “Amplitude of quenching, larger in T224A” value on T224A CYP3A4 [3] (ligand-free and progesterone/GS8-bound T224A CYP3A4) was 35–50%. The “Amplitude of quenching, smaller in T224A” value on T224A CYP3A4 [3] (ritonavir-bound T224A CYP3A4) is 60%. Also, the “Fluorol binding kinetics (phases)” value on T224A CYP3A4 [3] (within 2 s) and at WT CYP3A4 [4] (within 2 s) was “biphasic” each time. The “Decrease in amplitude of quenching” value at WT CYP3A4 [4] (WT, in the presence of GS8, equimolar CYP3A4 and fluorol) is ~ 20%; on WT CYP3A4 [4] (WT, in the presence of ritonavir, equimolar CYP3A4 and fluorol) it was ~ 20%. Besides, the “Increase in amplitude of quenching” value at WT CYP3A4 [4] (WT, in the presence of progesterone, equimolar CYP3A4 and fluorol) is recorded as ~ 40%.

Usually Kd stands for the equilibrium constant for the complex coming apart.
